Test system: VR1 receptor (293 cells expressing capsaicin-insensitive VR1 receptor variants)
Test: High throughput screening of VR1 antagonists using a calcium imaging assay (Fura2, pH 5.1 stimulus);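 also: Fura2 ratiometric fluorescence read every 4 s over 3 min, response taken as peak ratio minus baseline before pre-treatment, compound pre-treatment preceding acid challenge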
Conditions: 1 uM compound; inhibition of calcium ion influx

SMILES	% Inhibition @ 1 uM
O=C(Nc1cc[nH]n1)c1ccc(-c2ncccc2Cl)c(F)c1 [Compound 1175]	+ (compound exhibited 0-25% inhibition of calcium ion influx induced by capsaicin stimulation)
CCCCc1ccc(NC(=O)c2ccc(-c3ncccc3Cl)cn2)cc1 [Compound 1319]	+++ (compound exhibited 50-75% inhibition of calcium ion influx induced by capsaicin stimulation)
O=C(Nc1ccc(Cl)c(C(=O)O)c1)c1ccc(-c2ncccc2Cl)c(F)c1 [Compound 1183]	++++ (compound exhibited 75% or greater inhibition of calcium ion influx induced by capsaicin stimulation)
O=C(Nc1ncc(C(F)(F)F)cc1Cl)c1ccc(-c2ncccc2Cl)cc1F [Compound 1115]	+ (compound exhibited 0-25% inhibition of calcium ion influx induced by capsaicin stimulation)
COc1ccc(NC(=O)c2ccc(-c3ncccc3Cl)cc2)cc1O [Compound 1288]	+ (compound exhibited 0-25% inhibition of calcium ion influx induced by capsaicin stimulation)
CCn1c2ccccc2c2cc(NC(=O)c3ccc(-c4ccccc4Cl)c(OC)c3)ccc21 [Compound 1251]	+ (compound exhibited 0-25% inhibition of calcium ion influx induced by capsaicin stimulation)
COc1cc(C(=O)Nc2ccncn2)ccc1-c1ncccc1Cl [Compound 1242]	++ (compound exhibited 25-50% inhibition of calcium ion influx induced by capsaicin stimulation)
O=C(Nc1cccnc1Cl)c1ccc(-c2ncccc2Cl)cc1 [Compound 1047]	++ (compound exhibited 25-50% inhibition of calcium ion influx induced by capsaicin stimulation)
Cc1cc(NC(=O)c2ccc(-c3ncccc3Cl)cc2F)nc(C)n1 [Compound 1123]	+++ (compound exhibited 50-75% inhibition of calcium ion influx induced by capsaicin stimulation)
O=C(Nc1cccc(Cl)c1Cl)c1ccc(-c2ncccc2Cl)c(F)c1 [Compound 1139]	++++ (compound exhibited 75% or greater inhibition of calcium ion influx induced by capsaicin stimulation)
O=C(Nc1ccccc1O)c1ccc(-c2ncccc2Cl)cc1F [Compound 1084]	+ (compound exhibited 0-25% inhibition of calcium ion influx induced by capsaicin stimulation)
COc1ccccc1NC(=O)c1ccc(-c2ncccc2Cl)c(OC)c1 [Compound 1211]	++ (compound exhibited 25-50% inhibition of calcium ion influx induced by capsaicin stimulation)
O=C(Nc1ccc2ccccc2c1)c1ccc(-c2ncccc2Cl)cc1 [Compound 1074]	++++ (compound exhibited 75% or greater inhibition of calcium ion influx induced by capsaicin stimulation)
COc1cc(NC(=O)c2ccc(-c3ncccc3Cl)cn2)cc(C(F)(F)F)c1 [Compound 1328]	+ (compound exhibited 0-25% inhibition of calcium ion influx induced by capsaicin stimulation)
COc1cc(C(=O)Nc2cccc(C(=O)O)c2)ccc1-c1ncccc1Cl [Compound 1258]	+ (compound exhibited 0-25% inhibition of calcium ion influx induced by capsaicin stimulation)
COc1ccc(NC(=O)c2ccc(-c3ncccc3Cl)c(OC)c2)cc1OC [Compound 1257]	+ (compound exhibited 0-25% inhibition of calcium ion influx induced by capsaicin stimulation)
O=C(Nc1ccc(C2CCCCC2)cc1)c1ccc(-c2ncccc2Cl)cn1 [Compound 1320]	++++ (compound exhibited 75% or greater inhibition of calcium ion influx induced by capsaicin stimulation)
COc1cc(C(=O)Nc2ccccc2)ccc1-c1ncccc1Cl [Compound 1206]	+ (compound exhibited 0-25% inhibition of calcium ion influx induced by capsaicin stimulation)
CC(C)(C)c1ccc(NC(=O)c2ccc(-c3ncccc3Cl)c(F)c2)cc1 [Compound 1142]	++++ (compound exhibited 75% or greater inhibition of calcium ion influx induced by capsaicin stimulation)
CC(C)(C)c1ccc(NC(=O)c2ccc(-c3ncccc3Cl)cc2F)cc1 [Compound 1103]	+ (compound exhibited 0-25% inhibition of calcium ion influx induced by capsaicin stimulation)
O=C(Nc1ccccc1Cl)c1ccc(-c2ncccc2Cl)cc1 [Compound 1032]	+ (compound exhibited 0-25% inhibition of calcium ion influx induced by capsaicin stimulation)
O=C(Nc1ccc(F)cc1)c1ccc(-c2ncccc2Cl)c(F)c1 [Compound 1131]	+ (compound exhibited 0-25% inhibition of calcium ion influx induced by capsaicin stimulation)
O=C(Nc1cccnc1Cl)c1ccc(-c2ncccc2Cl)cc1F [Compound 1118]	+ (compound exhibited 0-25% inhibition of calcium ion influx induced by capsaicin stimulation)
COc1ccc(NC(=O)c2ccc(-c3ncccc3Cl)cn2)cc1O [Compound 1355]	++ (compound exhibited 25-50% inhibition of calcium ion influx induced by capsaicin stimulation)
COc1cc(C(=O)Nc2ccc(Cl)cc2S(=O)(=O)O)ccc1-c1ncccc1Cl [Compound 1278]	+ (compound exhibited 0-25% inhibition of calcium ion influx induced by capsaicin stimulation)
COc1cc(C(=O)Nc2cc(C)nc(C)n2)ccc1-c1ncccc1Cl [Compound 1249]	+ (compound exhibited 0-25% inhibition of calcium ion influx induced by capsaicin stimulation)

SMILES	% Inhibition @ 1 uM
COc1cc(C(=O)Nc2ccc(C(F)(F)F)cc2)ccc1-c1ncccc1Cl [Compound 1230]	++ (compound exhibited 25-50% inhibition of calcium ion influx induced by capsaicin stimulation)
CC(C)Oc1cccc(NC(=O)c2ccc(-c3ncccc3Cl)cc2)c1 [Compound 1295]	+ (compound exhibited 0-25% inhibition of calcium ion influx induced by capsaicin stimulation)
COc1cc(C(=O)Nc2ccc(OC)c(C(F)(F)F)c2)ccc1-c1ncccc1Cl [Compound 1275]	++ (compound exhibited 25-50% inhibition of calcium ion influx induced by capsaicin stimulation)
COc1cc(NC(=O)c2ccc(-c3ncccc3Cl)cc2)cc(C(F)(F)F)c1 [Compound 1045]	++ (compound exhibited 25-50% inhibition of calcium ion influx induced by capsaicin stimulation)
CCC1c2ccccc2-c2cc(NC(=O)c3ccc(-c4ncccc4Cl)cc3)ccc21 (stereo not drawn) [Compound 1072]	++ (compound exhibited 25-50% inhibition of calcium ion influx induced by capsaicin stimulation)
COc1cc(C(=O)Nc2nccs2)ccc1-c1ncccc1Cl [Compound 1252]	+ (compound exhibited 0-25% inhibition of calcium ion influx induced by capsaicin stimulation)
O=C(Nc1ccc(C(F)(F)F)cn1)c1ccc(-c2ncccc2Cl)cc1 [Compound 1067]	++ (compound exhibited 25-50% inhibition of calcium ion influx induced by capsaicin stimulation)
O=C(Nc1cccc(Cl)c1)c1ccc(-c2ncccc2Cl)cc1F [Compound 1088]	+ (compound exhibited 0-25% inhibition of calcium ion influx induced by capsaicin stimulation)
COc1cc(C(=O)Nc2ccc(Br)cn2)ccc1-c1ncccc1Cl [Compound 1243]	+ (compound exhibited 0-25% inhibition of calcium ion influx induced by capsaicin stimulation)
O=C(Nc1ccc2ncccc2c1)c1ccc(-c2ncccc2Cl)cc1 [Compound 1071]	+ (compound exhibited 0-25% inhibition of calcium ion influx induced by capsaicin stimulation)
COc1ccc(NC(=O)c2ccc(-c3ncccc3Cl)cc2F)cn1 [Compound 1120]	+ (compound exhibited 0-25% inhibition of calcium ion influx induced by capsaicin stimulation)
COc1ccc(NC(=O)c2ccc(-c3ncccc3Cl)c(F)c2)cc1Cl [Compound 1151]	++++ (compound exhibited 75% or greater inhibition of calcium ion influx induced by capsaicin stimulation)
O=C(Nc1ccccc1CCO)c1ccc(-c2ncccc2Cl)cc1 [Compound 1040]	+++ (compound exhibited 50-75% inhibition of calcium ion influx induced by capsaicin stimulation)
Cc1cc(C)nc(NC(=O)c2ccc(-c3ncccc3Cl)c(F)c2)c1 [Compound 1156]	+ (compound exhibited 0-25% inhibition of calcium ion influx induced by capsaicin stimulation)
COc1cc(C(=O)Nc2ccc(Cl)c(C(=O)O)c2)ccc1-c1ncccc1Cl [Compound 1259]	++++ (compound exhibited 75% or greater inhibition of calcium ion influx induced by capsaicin stimulation)
O=C(Nc1ccccc1)c1ccc(-c2ncccc2Cl)cn1 [Compound 1306]	++++ (compound exhibited 75% or greater inhibition of calcium ion influx induced by capsaicin stimulation)
O=C(Nc1cccnc1)c1ccc(-c2ncccc2Cl)cc1F [Compound 1080]	+ (compound exhibited 0-25% inhibition of calcium ion influx induced by capsaicin stimulation)
COc1cc(C(=O)Nc2ccc3ccccc3c2)ccc1-c1ncccc1Cl [Compound 1253]	++++ (compound exhibited 75% or greater inhibition of calcium ion influx induced by capsaicin stimulation)
COc1ccc(NC(=O)c2ccc(-c3ncccc3Cl)cc2)cc1 [Compound 1022]	++ (compound exhibited 25-50% inhibition of calcium ion influx induced by capsaicin stimulation)
O=C(Nc1ccc(F)cc1[N+](=O)[O-])c1ccc(-c2ncccc2Cl)c(F)c1 [Compound 1149]	++++ (compound exhibited 75% or greater inhibition of calcium ion influx induced by capsaicin stimulation)
O=C(Nc1ccc(C2CCCCC2)cc1)c1ccc(-c2ncccc2Cl)cc1 [Compound 1044]	++++ (compound exhibited 75% or greater inhibition of calcium ion influx induced by capsaicin stimulation)
CCOC(=O)c1cccc(NC(=O)c2ccc(-c3ncccc3Cl)cc2)c1 [Compound 1286]	+ (compound exhibited 0-25% inhibition of calcium ion influx induced by capsaicin stimulation)
COc1cc(NC(=O)c2ccc(-c3ncccc3Cl)cn2)cc(OC)c1OC [Compound 1356]	+ (compound exhibited 0-25% inhibition of calcium ion influx induced by capsaicin stimulation)
O=C(Nc1ccc2cn[nH]c2c1)c1ccc(-c2ncccc2Cl)cn1 [Compound 1357]	++++ (compound exhibited 75% or greater inhibition of calcium ion influx induced by capsaicin stimulation)
CN1CCCc2ccc(NC(=O)c3ccc(-c4ncccc4Cl)c(F)c3)cc21 [Compound 1203]	+ (compound exhibited 0-25% inhibition of calcium ion influx induced by capsaicin stimulation)
